Ends that are not written are not given here. Peptide text beside a SMILES is read from it. * marks the point of attachment. For = O=C*
Key:
[1] = system: MCs (FSMCs, BMCMCs, MC/9 cells); type: cell-based, mouse; details: in vitro; for effect on MC degranulation induced by δ-toxin: pre-treatment before δ-toxin stimulation
Protocol: Preparations of BMCMCs and fetal skin-derived mast cells (FSMCs) were previously described in Yamada, et al., J Invest Dermatol 121, 1425-1432 (2003). The purity of MCs was confirmed by surface expression of CD45 and CD117 (eBioscience).
Degranulation of MCs was assessed by β-hexosaminidase assay as previously described in Yamada, et al., J Invest Dermatol 121, 1425-1432, (2003). Briefly, MCs (2×10^6 m^−1) were preloaded with or without anti-DNP IgE (0.3 μg ml^−1) in RPMI with IL-3 for 15 hours. The cells were resuspended in Tyrode's buffer (Sigma) at 2×10^4 cells per 100 μl for FSMCs or 1×10^5 cells per 100 μl for BMCMCs and MC/9 cells, aliquoted in triplicate into a 96-well U-bottom plate and incubated with EGTA (1 mM, Sigma), LY294002 (100 μM, Sigma) and WRW4 (Trp-Arg-Trp-Trp-Trp-Trp-CONH2 (SEQ ID NO: […], American peptide) and Cyclosporine H (10 μM, Alexis Biochemicals) for 30 min, and then stimulated with DNP-HSA (30 ng ml^−1) TNP-HSA (30 nM) for 30 min, followed by exposure to Ionomycin (1 μM, Sigma) δ-toxin (indicated concentrations), PSMαs (indicated concentrations) or FPR2 ligands for 15 min. Results of various stimuli are given as a relative percentage, where freeze and thaw of total cell culture represents 100%.

FSMCs = type: cell-based, mouse
Protocol: In brief, FSMCs (2×10^6 m^−1) were preloaded with or without anti-DNP-IgE (0.3 g ml^−1) in RPMI with IL-3 for 15 hours. Cells were washed and loaded with Fluo-4AM (5 μM, Life Technologies) for 30 minutes. Cells were washed again and further incubated in Tyrode's buffer with or without EGTA (1 mM) for 30 minutes. DNP-HSA (30 ng ml^−1), Ionomycin (1 μM) or δ-toxin (30 μg ml^−1) were used to induce calcium flux in these cells.

MC/9 cells = test: Viability of MCs after stimulation with synthetic PSMs (LDH release); details: synthetic peptides
Protocol: (a) % LDH released from MC/9 cells stimulated by medium alone (Ctrl) and indicated concentrations (μg ml^−1) of PSMs for 15 or 60 minutes. […] Data represent means±s.d. of triplicate cultures. Data are representative of three independent experiments.
Because δ-toxin is highly related to PSMα2 and PSMα3, the viability of MCs after stimulation with synthetic PSMα2, PSMα3, or δ-toxin, was assessed.

[2] = system: primary mouse macrophages and keratinocytes; test: Cell toxicity by LDH assay in primary mouse macrophages and keratinocytes
Protocol: Cell toxicity of δ-toxin. BMCMCs, BMMφ (bone marrow derived macrophages), bone marrow neutrophils and primary keratinocytes isolated from mice were stimulated with PSMα (10 μg ml−1) or δ-toxin (10 or 100 μg ml−1) for indicated times. Cell toxicity was measured by LDH assay. Data represent means±s.d. of triplicate cultures. NS; not significant, ***P<0.001, one-way ANOVA with Tukey's post-hoc test for multiple comparisons. Data are representative of two independent experiments.

MC degranulation in vivo = test: Passive cutaneous anaphylaxis (PCA) assay, Evans blue leakage in ear skin; details: mice pretreated with WRW4, then S. aureus culture supernatant intradermally
Protocol: To assess whether δ-toxin induces MC degranulation in vivo, synthetic δ-toxin was injected into the skin of mouse ears and MC degranulation was monitored by the vascular leakage of Evan's blue dye into the extravascular space using the passive cutaneous anaphylaxis (PCA) assay.
Four to six weeks later, the mice were subjected to experimental PCA or epicutaneous S. aureus sensitization. […] PCA assay was performed as described, with minor modifications. […] After inoculation, 0.1 ml of 5 mg ml −1 Evans blue dye was injected intravenously. Extravasation of Evans blue dye was monitored for 30 minutes, and 4 mm of punched-out biopsies were incubated at 63° C. overnight in 200 μl formamide. Quantitative analysis of extracts was determined by measuring the absorbance at 600 nm.

Compound	effect on MC degranulation induced by δ-toxin [1]	cell viability / cell death in MCs (MC/9 cells)	other results
O=C(O)CN(CCOCCOCCN(CC(=O)O)CC(=O)O)CC(=O)O [EGTA, ethylene glycol tetraacetic acid]	blocked MC degranulation	–	effect on δ-toxin-triggered Ca2+ influx (FSMCs; EGTA 1 mM): abrogated
CCCCC[C@H](O)/C=C/C=C\C=C\C=C\[C@@H](O)[C@@H](O)CCCC(=O)O [Lipoxin A4]	–	–	induction of MC degranulation [1]: did not induce mouse MC degranulation
CC[C@H](C)[C@H](NC(=O)CNC(=O)[C@H](CCSC)NC=O)C(=O)N[C@H](C(=O)N[C@@H](C)C(=O)NCC(=O)N[C@H](C(=O)N[C@H](C(=O)N[C@@H](CCCCN)C(=O)N[C@H](C(=O)N[C@H](C(=O)N[C@@H](CCCCN)C(=O)N[C@@H](CO)C(=O)N[C@@H](CC(C)C)C(=O)N[C@H](C(=O)N[C@@H](CCC(=O)O)C(=O)N[C@@H](CCC(N)=O)C(=O)N[C@@H](Cc1ccccc1)C(=O)N[C@H](C(=O)NCC(=O)N[C@@H](CCCCN)C(=O)O)[C@@H](C)O)[C@@H](C)CC)[C@@H](C)CC)C(C)C)[C@@H](C)CC)[C@@H](C)CC)[C@@H](C)CC [PSMα2] (For-MGIIAGIIKVIKSLIEQFTGK-OH)	–	induced robust loss of cell viability	cell death [2]: triggered robust cell death
CC[C@H](C)[C@H](NC(=O)CNC(=O)[C@H](CCSC)NC=O)C(=O)N[C@H](C(=O)N[C@@H](C)C(=O)NCC(=O)N[C@H](C(=O)N[C@H](C(=O)N[C@@H](CCCCN)C(=O)N[C@@H](Cc1ccccc1)C(=O)N[C@H](C(=O)N[C@@H](CCCCN)C(=O)NCC(=O)N[C@@H](CC(C)C)C(=O)N[C@H](C(=O)N[C@@H](CCC(=O)O)C(=O)N[C@@H](CCCCN)C(=O)N[C@@H](Cc1ccccc1)C(=O)N[C@H](C(=O)NCC(=O)N[C@@H](CCCCN)C(=O)O)[C@@H](C)O)[C@@H](C)CC)[C@@H](C)CC)[C@@H](C)CC)[C@@H](C)CC)[C@@H](C)CC [PSMα3]	–	induced robust loss of cell viability	–
C[C@H](CCC(=O)O)C[C@H](C)C[C@H](C)C(=O)/C=C(\O)[C@H](C)C[C@H](C)C/C=C/[C@@H](C)[C@@H](O)[C@@H](C)[C@@H](O)C[C@@H]1CC[C@@](C)([C@H]2CC[C@@](C)([C@@H](C)O)O2)O1 [ionomycin]	–	–	induction of Ca2+ influx (FSMCs): induced rapid Ca 2+ influx
CC[C@H](C)[C@H](NC(=O)[C@H](Cc1c[nH]c2ccccc12)NC(=O)[C@H](CCCCN)NC(=O)[C@@H](NC(=O)[C@H](CC(C)C)NC(=O)[C@H](CC(=O)O)NC(=O)CNC(=O)[C@@H](NC(=O)[C@@H](NC(=O)[C@H](CO)NC(=O)[C@@H](NC(=O)[C@@H](NC(=O)[C@H](CC(=O)O)NC(=O)[C@H](CCC(N)=O)NC(=O)[C@H](C)NC(=O)[C@@H](N)CCSC)[C@@H](C)CC)[C@@H](C)CC)[C@@H](C)O)[C@@H](C)CC)C(C)C)C(=O)N[C@H](C(=O)N[C@@H](CC(=O)O)C(=O)N[C@H](C(=O)N[C@H](C(=O)N[C@@H](CC(N)=O)C(=O)N[C@@H](CCCCN)C(=O)N[C@@H](Cc1ccccc1)C(=O)N[C@H](C(=O)N[C@@H](CCCCN)C(=O)N[C@@H](CCCCN)C(=O)O)[C@@H](C)O)C(C)C)[C@@H](C)O)[C@@H](C)CC [δ-toxin]	–	did not induce detectable cell death	–
LESIFRSLLFRVM [MMK1, human FPR2 ligand]	–	–	induction of MC degranulation [1]: did not induce mouse MC degranulation
Trp-Arg-Trp-Trp-Trp-Trp-CONH2 (WRWWWW-NH2) [WRW4]	inhibited MC degranulation	–	effect on MC degranulation induced by δ-toxin in vivo (MC degranulation in vivo): inhibited MC degranulation
pertussis toxin	partially reduced	–	–
